The values that follow come from patent US8637568B2, “Serotonin reuptake inhibitors” (Theravance, Inc., priority 2010, dated 2014).

Assay [1] addresses T1, human recombinant SERT (HEK293-hSERT cells) (Homo sapiens, UniProt P31645).
T1 construct: expressed in transfected cells; host or cells: HEK293 (stably transfected), whole cells
In words: hSERT neurotransmitter uptake assay. The settings on record: serotonin reuptake inhibition in HEK293-hSERT cells; read-out: SERT pIC50 (converted). In kind it is cell-based. The procedure:
HEK293 cells stably-transfected with human recombinant SERT (HEK293-hSERT) were grown in Dulbecco's Modified Eagle's Medium supplemented with 10% dialyzed fetal bovine serum, 100 µg/ml penicillin, 100 µg/ml streptomycin, 2 mM L-glutamine, and 250 μg/ml of the aminoglycoside antibiotic G418. Cells were incubated in a 5% CO2, humidified incubator at 37° C.
In pre-incubation studies, test compound was added to cells for 30 minutes at 37° C. prior to the addition of fluorescent substrate. […] For real-time measurements, compounds were either preincubated (as above) or mixed with substrate prior to addition, and kinetic measurements, relative fluorescence units (RFU integrated over 0.5 ms),were made using a cycle time of 1 min.

For assay [2], the target named is T2, human recombinant serotonin transporter (hSERT) (Homo sapiens, UniProt P31645).
T2 construct: expressed in transfected cells; host or cells: HEK-293 (stably transfected), membrane preparation
T2 sequence (P31645 whole entry): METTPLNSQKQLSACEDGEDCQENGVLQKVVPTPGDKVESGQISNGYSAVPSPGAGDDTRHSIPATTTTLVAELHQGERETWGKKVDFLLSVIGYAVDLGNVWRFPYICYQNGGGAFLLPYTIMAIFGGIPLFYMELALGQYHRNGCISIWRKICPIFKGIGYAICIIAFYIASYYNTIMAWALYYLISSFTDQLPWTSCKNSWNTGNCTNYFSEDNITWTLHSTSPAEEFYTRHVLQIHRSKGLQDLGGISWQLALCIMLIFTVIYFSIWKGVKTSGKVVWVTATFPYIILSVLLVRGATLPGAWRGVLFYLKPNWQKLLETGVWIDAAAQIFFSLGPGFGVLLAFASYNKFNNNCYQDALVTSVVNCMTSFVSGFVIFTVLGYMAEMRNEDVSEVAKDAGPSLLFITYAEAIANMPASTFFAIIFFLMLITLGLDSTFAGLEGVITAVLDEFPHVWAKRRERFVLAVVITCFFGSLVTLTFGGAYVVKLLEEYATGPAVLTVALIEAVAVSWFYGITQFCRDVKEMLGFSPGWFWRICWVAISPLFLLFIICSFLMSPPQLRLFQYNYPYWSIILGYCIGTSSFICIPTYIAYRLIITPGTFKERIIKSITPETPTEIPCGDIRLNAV
Put plainly: hSERT binding assay (3H-citalopram membrane radioligand binding). The following applies: inhibition of 3H-citalopram binding to membranes from HEK-293 cells expressing hSERT; Cheng-Prusoff; read-out: SERT pKi (converted). On the procedure:
Protein concentration of the membrane suspension was determined using a Bio-Rad Bradford Protein Assay kit. Membranes were snap frozen and stored at −80° C.
Following a 60 minute incubation at 22° C. […] IC50 values were generated from concentration response curves using the Sigmoidal Dose Response (variable slope) algorithm in Prism GraphPad.

T1 sequence (P31645 whole entry): as above

In the case of `CS(=O)(=O)NC[C@@H](Oc1ccc(C(F)(F)F)cc1)[C@H]1CCNC1` [Example 3-1, N-[(S)-2-(S)-Pyrrolidin-3-yl-2-(4-trifluoromethylphenoxy)ethyl]-methanesulfonamide], in assay [1], the IC50 is no more than 10 nM. Besides, the Ki in assay [2] is no more than 10 nM.
On to `CC(=O)N(C[C@@H](Oc1ccc(C(F)(F)F)cc1)[C@H]1CCNC1)S(C)(=O)=O` [Example 3-4, N-Acetyl-N-[(S)-2-(S)-pyrrolidin-3-yl-2-(4-trifluoromethylphenoxy)ethyl]-methanesulfonamide], for which the IC50 in assay [1] is no more than 10 nM. In assay [2], the Ki is no more than 10 nM.
Turning to `O=C(O)c1ccc(S(=O)(=O)NC[C@@H](Oc2ccc(C(F)(F)F)cc2)[C@H]2CCNC2)cc1` [Example 3-21, 4-[(S)-2-(S)-Pyrrolidin-3-yl-2-(4-trifluoromethylphenoxy)ethylsulfamoyl]-benzoic acid], the IC50 in assay [1] is no more than 100 nM. In addition, the Ki in assay [2] is no more than 100 nM.
Regarding `CNS(=O)(=O)C[C@@H](Oc1ccc(C(F)(F)F)cc1)[C@H]1CCNC1` [Example 6, (S)-2-(S)-Pyrrolidin-3-yl-2-(4-trifluoromethylphenoxy)ethanesulfonic Acid Methylamide], the IC50 in assay [1] is no more than 10 nM.
For `CN(C)S(=O)(=O)C[C@@H](Oc1ccc(C(F)(F)F)cc1)[C@H]1CCNC1` [Example 7-1, (S)-2-(S)-Pyrrolidin-3-yl-2-(4-trifluoromethylphenoxy)ethanesulfonic acid dimethylamide], the IC50 in assay [1] was no more than 10 nM.
